Results taken from ChEMBL document CHEMBL3868619, “Synthesis and biological assessment of novel N-(hydroxy/methoxy)alkyl β-enaminone curcuminoids” (Bioorg Med Chem Lett, 2016).
pEC50, pIC50: −log10 of the molar value. Converted amounts (≈) assume the structure as drawn.

Assays:
[1] = Aqueous solubility of the compound in sodium phosphate buffer at pH 6.8 after 90 mins by shake flask method; type: physicochemical
[2] = Aqueous solubility of the compound in sodium phosphate buffer at pH 6.8 after 24 hrs by shake flask method; type: physicochemical
[3] = Antioxidant activity assessed as DPPH radical scavenging activity after 30 mins by spectrophotometric analysis; type: functional
[4] = Solubility of the compound in ethanol; type: physicochemical
[5] = Solubility of the compound in methanol; type: physicochemical
[6] = Solubility of the compound in dimethylformamide; type: physicochemical
[7] = Solubility of the compound in dimethyl sulfoxide; type: physicochemical
[8] = Solubility of the compound in acetone; type: physicochemical
[9] = Solubility of the compound in 2-methyl-THF; type: physicochemical
[10] = Solubility of the compound in ethyl acetate; type: physicochemical
[11] = Cytotoxicity against human Caco2 cells assessed as decrease in cell viability after 48 hrs by MTT assay; type: functional, cell-based; conditions: Caco-2, 48 h
[12] = Cytotoxicity against human HepG2 cells assessed as decrease in cell viability after 48 hrs by MTT assay; type: functional, cell-based; conditions: HepG2, 48 h
[13] = Cytotoxicity against human HT-29 cells assessed as decrease in cell viability after 48 hrs by MTT assay; type: functional, cell-based; conditions: HT-29, 48 h
[14] = Cytotoxicity against CHOK1 cells assessed as decrease in cell viability after 48 hrs by MTT assay; type: toxicity, cell-based, Cricetulus griseus; conditions: Chinese hamster, CHO-K1 cells
[15] = Cytotoxicity against human EAhy926 cells assessed as decrease in cell viability after 48 hrs by MTT assay; type: toxicity, cell-based, EA.hy 926; conditions: EA.hy926 cells
Caco-2 [16] = experiment: Induction of ROS generation in human Caco2 cells at 1 uM using DCFH-DA by fluorescence assay relative to control; type: functional
Caco-2 [17] = experiment: Induction of ROS generation in human Caco2 cells at 10 uM using DCFH-DA by fluorescence assay relative to control; type: functional
HepG2 [18] = experiment: Induction of ROS generation in human HepG2 cells at 1 uM using DCFH-DA by fluorescence assay relative to control; type: functional
HepG2 [19] = experiment: Induction of ROS generation in human HepG2 cells at 10 uM using DCFH-DA by fluorescence assay relative to control; type: functional
HT-29 [20] = experiment: Induction of ROS generation in human HT-29 cells at 1 uM using DCFH-DA by fluorescence assay relative to control; type: functional
HT-29 [21] = experiment: Induction of ROS generation in human HT-29 cells at 10 uM using DCFH-DA by fluorescence assay relative to control; type: functional
[22] = Induction of ROS generation in CHOK1 cells at 1 uM using DCFH-DA by fluorescence assay relative to control; type: cell-based, Cricetulus griseus; conditions: chinese hamster, cho-k1, 1 µM
[23] = Induction of ROS generation in CHOK1 cells at 10 uM using DCFH-DA by fluorescence assay relative to control; type: cell-based, Cricetulus griseus; conditions: chinese hamster, cho-k1, 10 µM
EA.hy 926 [24] = experiment: Induction of ROS generation in human EAhy926 cells at 1 uM using DCFH-DA by fluorescence assay relative to control; type: functional
EA.hy 926 [25] = experiment: Induction of ROS generation in human EAhy926 cells at 10 uM using DCFH-DA by fluorescence assay relative to control; type: functional
[26] = Chemical stability of the compound sodium phosphate buffer at pH 6.8 after 24 hrs by LC-MS analysis; type: physicochemical; conditions: pH 6.8, 24 h

Row | Structure (SMILES) | solubility thermodynamic at 1.5 h [1] [µM] | solubility thermodynamic at 24 h [2] [µM] | pEC50 [3] | solubility [4] | solubility [5] | solubility [6] | solubility [7] | solubility [8] | solubility [9] | solubility [10] | pIC50 [11] | pIC50 [12] | pIC50 [13] | IC50 at 48 h [14] [µM] | IC50 at 48 h [15] [µM] | Activity (Caco-2 [16]) [%] | Activity (Caco-2 [17]) [%] | Activity (HepG2 [18]) [%] | Activity (HepG2 [19]) [%] | Activity (HT-29 [20]) [%] | other results
1 | O=C(/C=C(/C=C/c1ccc(O)cc1)NCCO)/C=C/c1ccc(O)cc1 | 38.7 (≈ 13.6 µg/mL) | 37.9 (≈ 13.3 µg/mL) | < 3.70 | Soluble | Soluble | Soluble | Soluble | Insoluble | Insoluble | Insoluble | 4.24 | 4.32 | 4.18 | 66 | 50.2 | 98.1 | 87.1 | 82.7 | 83.6 | 94.9 | Activity (HT-29 [21]): 90.6%; Activity [22]: 93.4%; Activity [23]: 85.7%; Activity (EA.hy 926 [24]): 108%; Activity (EA.hy 926 [25]): 99.3%; Stability [26]: Stable
2 | COc1cc(/C=C/C(=O)/C=C(/C=C/c2ccc(O)c(OC)c2)NCCO)ccc1O | 8.14 (≈ 3.35 µg/mL) | 11.8 (≈ 4.85 µg/mL) | 4.55 | Soluble | Soluble | Soluble | Soluble | Insoluble | Insoluble | Insoluble | 4.06 | < 4.00 | < 4.00 | 87.5 | > 100 | 103.4 | 96.6 | 86.3 | 91.2 | 95.8 | Activity (HT-29 [21]): 102.7%; Activity [22]: 93.5%; Activity [23]: 90.9%; Activity (EA.hy 926 [24]): 113.3%; Activity (EA.hy 926 [25]): 102.4%; Stability [26]: Stable
3 | COCCCNC(=C\C(=O)/C=C/c1ccc(O)cc1)/C=C/c1ccc(O)cc1 | 10.4 (≈ 3.97 µg/mL) | 14.8 (≈ 5.63 µg/mL) | 3.88 | Soluble | Soluble | Soluble | Soluble | Insoluble | Insoluble | Insoluble | 4.62 | 4.21 | 4.28 | 44.9 | 81.9 | 97 | 89 | 79.5 | 71.6 | 98 | Activity (HT-29 [21]): 95.7%; Activity [22]: 99.8%; Activity [23]: 97%; Activity (EA.hy 926 [24]): 107.6%; Activity (EA.hy 926 [25]): 98.7%; Stability [26]: Stable
